Results as given in article PMC11519904, “Comprehensive Cell Biological Investigation of Cytochalasin B Derivatives with Distinct Activities on the Actin Network” (Journal of Natural Products, 2024).
Where “and” joins values, the source holds several entries; their conditions need not be identical. Identical values can stand only once. Like-named read-outs stand apart in the source and are kept apart here.

Key:
[1] = test system: L929 (mouse fibroblast); test: Cytotoxicity assay (MTT), L929; assay type: cell-based; conditions: 5 days of incubation, MTT, NC: no cytotoxic effect, or only weak inhibition of proliferation, read-out: IC50 L929
Method: The cytotoxicity assay was implemented in 96-well flat-bottom microtiter plates following a reported procedure.[21],[22],[33] The mammalian cell lines L929 (mouse fibroblast) and KB3.1 (human cervix carcinoma) were cultivated at 37 °C and 10% CO2 in Dulbecco’s modified minimum essential medium (DMEM, Life Technologies, Carlsbad, CA, USA) supplemented with 10% fetal bovine serum (FBS, Life Technologies). The microtiter plate was filled with 120 μL of suspended cells (50,000/mL), and 60 μL of a serial dilution of the test compound was added. After 5 days of incubation, growth inhibition (IC50) was determined by a colorimetric tetrazolium dye MTT assay.[34] The compounds were dissolved in MeOH (1 mg/mL), MeOH was used as negative control, and epothilone[35] (1 mg/mL) was used as positive control.

[2] = biological target: T1, actin (G-actin purified from rabbit skeletal muscle) (Oryctolagus cuniculus, UniProt P68135); test: Pyrene actin polymerization assay; assay type: biochemical; conditions: 2 μM compound, 2 μM actin (5% pyrene-actin), 550 nM actin seeds, after 30 min; control = 100%
T1 construct: 1.5 kg of fresh rabbit skeletal muscle was minced with a meat grinder; from tissue; host or cells: rabbit skeletal muscle (acetone powder)
From the text: To rule out that the reduced in cellulo efficacies of 3–5 could instead be explained by an altered membrane permeability of modified compounds or their differential effects on other intracellular factors, pyrene actin polymerization assays[23] were used to analyze potential effects on actin assembly in vitro under defined conditions. Globular actin (G-actin) was purified from rabbit skeletal muscle[24] and fluorescently labeled with pyrene (see description in the Supporting Information). G-actin (2 μM) supplemented with 5% pyrene-labeled actin was added to actin seeds and the respective compound (2 μM) in polymerization buffer to initiate the reaction. Actin polymerization was then assessed by reading out the increasing pyrene fluorescence signal over time (Figure 3).
Acetone powder and G-actin were prepared as described previously.[24] Briefly, 1.5 kg of fresh rabbit skeletal muscle was minced with a meat grinder. Subsequently, the meat was stirred for 15 min in 2.5 L of high-salt buffer (0.5 M KCl, 0.1 M K2HPO4, 2 mM benzamidine, pH 6.4) and then pelleted at 4000g for 10 min. The supernatant was discarded, and the pellet was extracted once more with high-salt buffer and then washed twice with ice-cold ddH2O adjusting the slurry with 1 M Na2CO3 to pH 8.3 until a slight swelling of the pellet became visible. The pellet was then resuspended in ice-cold acetone, stirred for 15 min, and then centrifuged for 10 min at 4000g. The supernatant was discarded, and the pellet was washed once more with acetone before the pellet was broken up and dried in small pieces on aluminum foil under a fume hood overnight. The dried acetone powder was stored at −80 °C for further use.
For purification of G-actin, 5 g of the acetone powder was extracted five times with 50 mL of G-buffer containing 2 mM Tris-HCl, pH 8.0, 0.2 mM CaCl2, 0.5 mM DTT, 0.2 mM Na2ATP, and 0.1 mg/mL NaN3. After each step, the solution was filtered through a fine gauze, yielding a total volume of 250 mL. Subsequently, the solution was centrifuged for 30 min at 20,000g at 4 °C. Actin in the supernatant was then polymerized by addition of 25 × polymerization buffer (250 mM Tris-HCl pH 8.0, 1250 mM KCl, 25 mM Na2ATP, 50 mM MgCl2 × 6 H2O) overnight. Subsequently, KCl was added to a final concentration of 750 mM, followed by centrifugation of the solution at 150,000g at 4 °C for 3 h. The F-actin pellet was then homogenized with 25 mL of G-actin buffer using a potter and then dialyzed against G-buffer. After a final centrifugation step at 150,000g at 4 °C for 3 h, G-actin was purified by size exclusion chromatography using a HiLoad 26/75 Superdex 200 column. Actin concentrations were determined by measuring the absorbance at 290 nm and using an extinction coefficient of 26,600 M^–1 cm^–1.
For pyrene labeling, 10–20 mL of G-actin solution were dialyzed against labeling buffer following the procedure described by Doolittle et al.[38] […]
Pyrene assays were conducted to assess the inhibitory properties of cytochalasins on actin polymerization under defined conditions in vitro using G-actin and actin seeds. The degree of labeling was determined; EC290 nm actin: 26600 1/M × cm; EC342 nm pyrene: 31091 1/M × cm. […]

[3] = Microextraction of compounds from medium after cell exposure (conversion to 2); assay type: in vitro ADME, human; conditions: for conversion to 2 after 1 h: 1 h cell exposure (data not shown)
Method: […] Therefore, cells were seeded and treated with 5 × IC50 concentrations, as already described. […] After evaporation of EtOAc, the dried extracts were diluted in methanol (50 μL) and measured with a high-pressure liquid chromatography system coupled to a diode-array UV/vis detector conjugated with an electrospray ionization mass spectrometer, using an UltiMate 3000 Series uHPLC (Thermo Fisher Scientific) utilizing a C18 Acquity UPLC BEH column (2.1 × 50 mm, 1.7 μm; Waters, Milford, USA) connected to an amaZon speed ESI-Iontrap-MS (Bruker, Billerica, MA, USA). Spectra were analyzed using Bruker Compass DataAnalysis 4.4 SR1.

SMILES: C=C1[C@@H](C)[C@H]2[C@H](Cc3ccccc3)NC(=O)[C@]23OC(=O)/C=C/[C@H](O)CCC[C@@H](C)C/C=C/[C@H]3[C@@H]1OC(C)=O [Compound 3, 7-O-acetyl cytochalasin B]
- IC50 [1]: 16 µM
- IC50 ([1]; Mus musculus, L929, 120 h): > 10 µM
- relative actin polymerization rate [2]: 107%
- conversion to 2 / decomposition after 24 h cell exposure ([3]; medium re-extracted after 24 h, 5 x IC50, HPLC-UV-MS): no decomposition

SMILES: C=C1[C@@H](C)[C@H]2[C@H](Cc3ccccc3)NC(=O)[C@]23OC(=O)/C=C/[C@H](OC(C)=O)CCC[C@@H](C)C/C=C/[C@H]3[C@@H]1O [Compound 6, 20-O-acetyl cytochalasin B]
- IC50 [1]: 4.8 µM
- IC50 ([1]; Mus musculus, L929, 120 h): 4.8 to 9.4 µM
- relative actin polymerization rate [2]: 58%
- conversion to 2 after 1 h [3]: not detected

SMILES: C=C1[C@@H](C)[C@H]2[C@H](Cc3ccccc3)N(C(C)=O)C(=O)[C@]23OC(=O)/C=C/[C@H](O)CCC[C@@H](C)C/C=C/[C@H]3[C@@H]1O [Compound 5, N-acetyl cytochalasin B]
- IC50 [1]: 9.4 µM
- IC50 ([1]; Mus musculus, L929, 120 h): 4.8 to 9.4 µM
- relative actin polymerization rate [2]: 86% and 84–86%
- conversion to 2 after 1 h [3]: little conversion
